Key:
[1] = test system: passive cutaneous anaphylaxis (DNP-As antigen) in Wister strain rats; assay: passive cutaneous anaphylaxis (PCA) assay in rats; format: in vivo; conditions: 10 mg/kg oral, one hour before antigen; for inhibition in vivo at 10 mg/kg: Rattus norvegicus, po, 1 h, read-out: PCA Inhibition Ratio %
Protocol: (i) Antiserum abundant in homocytotropic antibody is prepared by the same method as Tada and Okumura did (cf. Journal of Immunology, vol. 106, page 1002, 1976). Thus, 1 mg (calculated as an amount of protein) of DNP-As (2,4-dinitrophenyl-coupled ascaris extract) prepared by methods of Strejan and Campbell (Journal of Immunology, vol. 98, p. 893, 1971) and of Eisen (Journal of Amer. Chem. Soc., vol. 85, p 4593, 1953) and 1×10^10pertussis vaccine are administered to each paw of Wister strain rats (180 to 200 grams body weights) by dividing the dose by four. Five days later, 0.5 mg of DNP-As is administered into muscle of back. Eight days later from the initial immunization, blood is taken from descending aorta under anesthetizing with ether, the resulting serum is stored at -80° and is melted before use.
(ii) Effect of tested compounds is investigated as follows:
Anti-serum obtained by the method (i) is diluted with physiological saline solution double by double successively and 0.05 ml of each diluted solution is administered into back of Wister strain rats (140 to 160 grams body weight) subcutaneously. After 72 hours, a solution of 2 mg (calculated as protein) of DNP-As and 2.5 mg of Evans Blue dissolved in 1 ml of physiological saline solution is administered intraveously at a dose of 5 ml/kg. After 30 minutes from antigen solution administration, the animals are killed and diameters of blue spots appeared at the place where antiserum is administered are measured. The PCA test is conducted by the same method as already described using a diluted solutions of antiserum which always show 10 mm or more of spot diameters and the effect of the test compounds is judged. Thus antiserum diluted solutions are administered to two places in back. Test compounds are administered orally at the dose of 10 mg/kg one hour before administration of antigen solution. From the skin of reacted parts of killed animals, leaked or emitted dyestuff is extracted and the amount of the dyestuff is measured. The inhibition ratio is calculated by the following expression:
Inhibition Ratio=(1-A'/A)×100
in which A' is an amount of dyestuff in the group treated with the test compounds and A is that in the control group.

male mice = assay: Acute oral toxicity in mice (lethal ratio); format: in vivo; conditions: 400 mg/kg oral, two weeks, four mice per group
Protocol: Acute toxicity was determined two weeks after oral administration of 400 mg/kg to male mice. Four mice (denominator) are used in each group and the dead numbers are given as the numerator. The compounds of the present invention show little, if any, toxicity.
Lethal ratios for all other compounds are 0/4 at doses of […]. It is therefore apparent that they are all safe compounds.

[2] = test system: carrageenin edema in SD-strain rats; assay: Carrageenin edema at hind foot of rats (anti-inflammatory action); format: in vivo, rat; conditions: Rattus norvegicus, po, 3 h, 200 mg/kg per os one hour before carrageenin; 3 hours after; read-out: % Inhibition of carrageenin edema
Protocol: The anti-inflammatory action of the compounds of the present invention were evaluated by measuring the inhibition against carrageein edema as set forth below.
Carrageenin edema at hind foot of rats:
SD-strain rats of body weights of around 150 grams were used, each group consisting of five rats. A solution (0.1 ml) of 0.5% carrageenin dissolved in physiological saline water was hypodermically injected into right hind foot pat of the rats and, one hour prior to the injection of carrageenin, 200 mg/kg of test compound was given per os. Foot volumes of the rats before the carrageenin treatment and those of three hours after the treatment were measured and the differences were compared with those of the control group to determine the effect of the compounds.

[3] = test system: SRS-A (slow reacting substance of anaphylaxis); assay: Anti-SRS-A action using isolated ileus of guinea pigs
Protocol: Anti-SRS-As action (An anti-action against slow reacting substance of anaphylaxis).
Hartley strain male guinea pigs (300 to 350 grams body weight) are killed and 1.0 to 1.5 cm of ileus is immeidiately excised from ileocecal parts and is suspended in 10 ml of Tyrode solution (95% O2 -5% CO2 saturation) containing 10^-7 g/ml of atropine and 10^-6 g/ml of pyrilamine. SRS-A (20 units) (the amount of SRS-A showing the same shrinkage as 5 ng of histamine is defined as 1 unit) prepared by using sensitized guinea pig lung is given to cause shrinkage there. Then antagonistic action of test compounds treated five minutes ago against the shrinkage is measured and recorded via isotonic transducer.
Inhibition Ratio of Test Compd (%)=(1-A'/A)×100
in which A' is a height of shrinkage of SRS-A+test compound and A is that of SRS-A.

allergic asthma = conditions: cited from earlier work
[4] = 10^-6 M; guinea pig ileus, SRS-A 20 units; 5 min, 1 µM
[5] = 10^-7 M; guinea pig ileus, SRS-A 20 units; 5 min, 0.1 µM

| Structure (SMILES) | inhibition in vivo at 10 mg/kg [1] | Lethal Ratio (dead/treated) (male mice) | inhibition in vivo at 200 mg/kg [2] | SRS-A Inhibition Ratio % [3, 4] | PCA Inhibition Ratio % ([1]; rat, 10 mg/kg) | SRS-A Inhibition Ratio % ([3]; 10^-6 M, guinea pig ileus, SRS-A 20 units, 5 min, 1 µM) | SRS-A Inhibition Ratio % (value in parentheses) [3, 5] | duration of action (in words) (allergic asthma; in vivo) | effect on allergic asthma (in words) (allergic asthma; in vivo) | effect on oral administration (in words) (allergic asthma; oral administration) |
| --- | --- | --- | --- | --- | --- | --- | --- | --- | --- | --- |
| Cc1cccc2c(O)c(C(=O)c3ccccc3)c(=O)[nH]c12 [Example 19, 3-benzoyl-4-hydroxy-8-methyl-2-quinolone] | 29.6% | 0/4 | 70% | 19.0% |  |  |  |  |  |  |
| CCCCCCc1ccc2[nH]c(=O)c(C(=O)c3ccccc3)c(O)c2c1 [Example 23, 3-benzoyl-6-n-hexyl-4-hydroxy-2-quinolone] |  | 0/4 | 15.9% |  | 13.1% | 83.3% | 32.8% |  |  |  |
| O=C(O)c1cc(=O)c2c(OCC(O)COc3cccc4oc(C(=O)O)cc(=O)c34)cccc2o1 [Sodium chromoglicate] |  |  |  |  |  |  |  | rather short | effective for allergic asthma | does not show any effect on oral administration |
| COc1ccc(C(=O)c2c(O)c3ccccc3[nH]c2=O)c(OC)c1OC [Example 32, 4-hydroxy-3-(2,3,4-trimethoxybenzoyl)-2-quinolone] | 16.3% | 0/4 |  | 100% |  |  | 83.3% |  |  |  |
| COC(=O)c1cccc2c(O)c(C(=O)c3ccccc3)c(=O)[nH]c12 [Example 13] | 25.7% | 1/4 |  | 19.8% |  |  |  |  |  |  |
